According to PubChem BioAssay (NCI):
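Compound exposure: 48 hours, 5 concentrations, 96-well plates. GI50 = concentration required for 50% inhibition of growth. At the TGI there is no net growth.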

What was measured:
Experiment in all cases: NCI anticancer screen, dose series, 48 h
TK-10 renal = system: TK-10 renal
EKVX NSCLC = system: EKVX NSCLC
IGROV1 ovarian = system: IGROV1 ovarian
MALME-3M melanoma = system: MALME-3M melanoma
UO-31 renal = system: UO-31 renal
K-562 leukemia = system: K-562 leukemia
KM12 colon = system: KM12 colon
SK-MEL-5 melanoma = system: SK-MEL-5 melanoma
SK-OV-3 ovarian = system: SK-OV-3 ovarian
SK-MEL-28 melanoma = system: SK-MEL-28 melanoma

C=C1N(C)c2ccc(Cl)cc2C1(C)C
GI50 (TK-10 renal): 14.7 µM
TGI (TK-10 renal): 69.2 µM
GI50 (EKVX NSCLC): 4.59 µM
TGI (EKVX NSCLC): > 100 µM
GI50 (IGROV1 ovarian): 8.35 µM
TGI (IGROV1 ovarian): 65.4 µM
GI50 (MALME-3M melanoma): 3.32 µM
TGI (MALME-3M melanoma): 20.5 µM
GI50 (UO-31 renal): 27.9 µM
TGI (UO-31 renal): > 100 µM
GI50 (K-562 leukemia): 3.75 µM
TGI (K-562 leukemia): > 100 µM
GI50 (KM12 colon): 3.95 µM
TGI (KM12 colon): 13.7 µM
GI50 (SK-MEL-5 melanoma): 4.32 µM
TGI (SK-MEL-5 melanoma): 15 µM
GI50 (SK-OV-3 ovarian): 18.1 µM
TGI (SK-OV-3 ovarian): 65.4 µM
GI50 (SK-MEL-28 melanoma): 19.7 µM
TGI (SK-MEL-28 melanoma): > 100 µM

CNC1C(OC2C(OC3C(O)C(O)C(O)C(O)C3O)OC(C)C2(O)CO)OC(CO)C(O)C1O (stereo not given) (tested in a mixture with another compound)
TGI (TK-10 renal): > 100 µM
TGI (EKVX NSCLC): > 100 µM
TGI (IGROV1 ovarian): > 100 µM
TGI (MALME-3M melanoma): > 100 µM
TGI (UO-31 renal): > 100 µM
TGI (K-562 leukemia): > 100 µM
TGI (KM12 colon): > 100 µM
TGI (SK-MEL-5 melanoma): > 100 µM
TGI (SK-OV-3 ovarian): > 100 µM
TGI (SK-MEL-28 melanoma): > 100 µM

CCC/C(=N\NC(=O)c1cc2ccccc2cc1O)C(CC)C(=O)CCC(=O)N(Cc1ccccc1)Cc1ccccc1 (stereo not given)
TGI (TK-10 renal): > 100 µM
TGI (EKVX NSCLC): > 100 µM
TGI (IGROV1 ovarian): > 100 µM
TGI (MALME-3M melanoma): > 100 µM
TGI (UO-31 renal): > 100 µM
TGI (K-562 leukemia): 69.9 µM
TGI (KM12 colon): > 100 µM
TGI (SK-MEL-5 melanoma): 60.9 µM
TGI (SK-OV-3 ovarian): > 100 µM
TGI (SK-MEL-28 melanoma): > 100 µM

CC(=O)c1ccc(NCN2C(=O)c3ccccc3C2=O)cc1
TGI (TK-10 renal): > 100 µM
TGI (EKVX NSCLC): > 100 µM
TGI (IGROV1 ovarian): > 100 µM
TGI (MALME-3M melanoma): > 100 µM
TGI (UO-31 renal): > 100 µM
TGI (K-562 leukemia): > 100 µM
TGI (KM12 colon): > 100 µM
TGI (SK-MEL-5 melanoma): > 100 µM
TGI (SK-OV-3 ovarian): > 100 µM
TGI (SK-MEL-28 melanoma): > 100 µM

CCN(CC)CCOc1ccc(C(=C2CCCCC2)c2ccc(OCCN(CC)CC)cc2)cc1
TGI (TK-10 renal): 2.89 µM
TGI (EKVX NSCLC): 3.36 µM
TGI (IGROV1 ovarian): 3.58 µM
TGI (MALME-3M melanoma): 3.13 µM
TGI (UO-31 renal): 2.96 µM
TGI (K-562 leukemia): 1.02 µM
TGI (KM12 colon): 2.57 µM
TGI (SK-MEL-5 melanoma): 2.95 µM
TGI (SK-OV-3 ovarian): 3.52 µM
TGI (SK-MEL-28 melanoma): 2.64 µM

CCN1CCN(C(=O)[C@]23CCC(C)(C)C[C@@H]2C2=CC[C@@H]4[C@@]5(C)C/C(=C/c6cccnc6)C(=O)C(C)(C)[C@@H]5CC[C@@]4(C)[C@]2(C)CC3)CC1
GI50 (TK-10 renal): 3.86 µM
TGI (TK-10 renal): 15.4 µM
GI50 (EKVX NSCLC): 1.9 µM
TGI (EKVX NSCLC): 6.48 µM
GI50 (IGROV1 ovarian): 1.91 µM
TGI (IGROV1 ovarian): 4.16 µM
GI50 (MALME-3M melanoma): 1.53 µM
TGI (MALME-3M melanoma): 2.91 µM
GI50 (UO-31 renal): 1.35 µM
TGI (UO-31 renal): 2.67 µM
GI50 (K-562 leukemia): 1.43 µM
TGI (K-562 leukemia): > 100 µM
GI50 (KM12 colon): 1.58 µM
TGI (KM12 colon): 3.26 µM
GI50 (SK-MEL-5 melanoma): 1.63 µM
TGI (SK-MEL-5 melanoma): 3 µM
GI50 (SK-OV-3 ovarian): 4.19 µM
TGI (SK-OV-3 ovarian): 16.8 µM
GI50 (SK-MEL-28 melanoma): 1.48 µM
TGI (SK-MEL-28 melanoma): 2.83 µM

CC(=O)NC(CCCCNC(=O)N(C)N=O)C(=O)NCc1ccccc1 (stereo not given)
TGI (TK-10 renal): > 100 µM
TGI (EKVX NSCLC): > 100 µM
TGI (IGROV1 ovarian): > 100 µM
TGI (MALME-3M melanoma): > 100 µM
TGI (UO-31 renal): > 100 µM
TGI (K-562 leukemia): > 100 µM
TGI (KM12 colon): > 100 µM
TGI (SK-MEL-5 melanoma): > 100 µM
TGI (SK-OV-3 ovarian): > 100 µM
TGI (SK-MEL-28 melanoma): > 100 µM

N=c1ccn2c(n1)O[C@@H]1[C@@H](O)[C@H](CO)O[C@@H]12
GI50 (TK-10 renal): > 100 µM
TGI (TK-10 renal): > 100 µM
GI50 (EKVX NSCLC): > 100 µM
TGI (EKVX NSCLC): > 100 µM
GI50 (IGROV1 ovarian): 11 µM
TGI (IGROV1 ovarian): > 100 µM
GI50 (MALME-3M melanoma): 2.57 µM
TGI (MALME-3M melanoma): > 100 µM
GI50 (UO-31 renal): 1.31 µM
TGI (UO-31 renal): 20.8 µM
GI50 (K-562 leukemia): > 100 µM
TGI (K-562 leukemia): > 100 µM
GI50 (KM12 colon): 27.3 µM
TGI (KM12 colon): > 100 µM
GI50 (SK-MEL-5 melanoma): 15.5 µM
TGI (SK-MEL-5 melanoma): > 100 µM
GI50 (SK-OV-3 ovarian): 2.85 µM
TGI (SK-OV-3 ovarian): > 100 µM
GI50 (SK-MEL-28 melanoma): 4.89 µM
TGI (SK-MEL-28 melanoma): > 100 µM
